Patent US20250281424A1 (New York Blood Center, Inc, priority 2020, published 2025)

Biological target: T1, human PF4 (Homo sapiens, UniProt P02776)
T1 construct: PF4 is a 70 amino acid, lysine-rich 7.8 kDa platelet-specific protein; made in house; host or cells: Escherichia coli BL21DE3 pLysS (pT7-7) and/or Drosophila S2 cells
T1 sequence (P02776 32-101): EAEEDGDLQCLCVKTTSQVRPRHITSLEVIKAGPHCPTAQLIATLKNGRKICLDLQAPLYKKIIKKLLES
Test: Inhibition of PF4 tetramer formation (BS3 cross-linking, SDS-PAGE)
Type: biochemical
Conditions: for inhibition at 5 µM: 5 μM inhibitor; for inhibition at 5 µM / inhibition at 10 µM: read-out: % inhibition of PF4 tetramer formation at single concentration of inhibitor; for inhibition at 10 µM: 10 μM inhibitor (column A); for IC50: read-out: IC50 of PF4 tetramer formation inhibition
Method: Compounds of Examples 1-38, 65-301, 303, 305, 307, 309, 311, 313, 314, 316, and 318-404 were tested using SDS PAGE analysis of BS3 crosslinked PF4 for their ability to prevent PF4 tetramer formation. […] See, Suvarna et al., Throm. Res, 122:211-220 (2008), which is hereby incorporated by reference, at least for a detailed description of this technique.
cDNA encoding human PF4 was cloned into the plasmid μMT/BiPN5-His A (Invitrogen Corp., Carlsbad CA) for expression in the Drosophila Expression System (Invitrogen, Carlsbad, CA). Cloning was performed using Bg1 II and Age I cloning sites. A hexanucleotide encoding Bg1 II site was then eliminated by site-directed mutagenesis so that the expressed protein contained full-length wild type (wt) PF4 or PF4^K50E with an identical sequence as their counterparts expressed in E. coli. See, method described in Sachais et al (Sachais, B. S. et al. (2012). Blood 119(25): 5955-5961). PF4 expression was induced by adding copper sulfate (0.5 mM). The induced S2 cells were incubated in serumfree Insect-Xpress™ media (Lonza, Walkersville, MD) for 3-5 days; supernatants were collected, sodium azide (0.02% final concentration) and EDTA (2.5 mM final concentration) were added, and the media were filtered through an Express® PLUS 0.22 μm filter (Millipore Corp., Billerica, MA).
Wild-type (WT) human PF4 in the pT7-7 vector (Novagen, Madison, WI) was expressed in the Escherichia coli strain BL21DE30 pLysS (Stratagene, La Jolla, CA), and purified and characterized as described by Rauova et al. (Rauova, L. et al. (2006). Blood 107(6): 2346-2353) and Park et al., (Blood, 75:1290-1295 (1990)), which are hereby incorporated by reference. Briefly, recombinant protein was isolated from the supernatant of the bacterial lysate by affinity chromatography using a HiTrap high-performance (HP) affinity column. WT PF4 was purified from the media on a heparin HiTrap® column on an ÄTKAPrime™ system (GE Healthcare) at 4° C. in Tris (10 mM), EDTA (1 mM), and pH 8 buffer. Media was loaded in buffer containing NaCl (0.5 M) and PF4 was eluted at 1.8 M NaCl using a linear gradient. Fractions containing purified PF4 as detected by silver staining of 12% NuPAGE Bis-Tris gels (Invitrogen) were pooled, concentrated and buffer exchanged into 50 mM HEPES, 0.5 M NaCl, pH—7.2 using an Amicon® Ultra centrifugal filter (3K NMWL, Millipore Corp). Protein was quantified using a BCA assay.
Compounds of Examples 1-38, 65-196, and 209-228 were then tested for their ability to inhibit PF4 tetramer formation using a cross-linking assay as described in Rauova cited above. Specifically, hPF4 (10 μg/ml) in phosphate-buffered saline (PBS) was incubated at 37° C. for 15 min in the absence of the antagonistic compounds (control sample) and presence of compounds. Cross-linking and SDS-PAGE analysis were then performed as described in “Analysis of PF4 multimerization” of Rauova. The relative amounts of PF4 in each of the monomer, dimer, trimer and tetramer form were calculated by analyzing the samples on a 12% SDS-polyacrylamide gel under reducing conditions. Bands were quantified using the Kodak ID Image Analysis system (Kodak, Rochester, NY). The SigmaMarker™ reagent served as the molecular weight standard. Data was compiled and bar graphed as % PF4 for the tetramer, trimer, dimer, and monomer as a function of concentration for the test and control samples.
This experiment was performed in a manner similar to experiment 1, but PF4 (10 μg/ml) in PBS was independently incubated with compounds of Examples 1-38, 65-196, and 209-228 for 60 min at room temperature, followed by the addition of cross-linking reagent bis(sulfosuccinimidyl)suberate (0.2 mM) for 30 min at room temperature. The reaction was stopped by adding NuPAGE® lithium dodecyl sulfate (LDS) sample buffer, and denatured by heating to 70° C. for 10 min according to the manufacturer's instructions. […]

SMILES | inhibition at 5 µM | inhibition at 10 µM | IC50
CCOC(=O)CCNC(=O)C1C(=O)c2ccc(C(=O)c3ccc4c(c3)C(=O)C(C(=O)NCCC(=O)OCC)C4=O)cc2C1=O (stereo not shown) [Example 27, 5,5′-carbonylbis(3-[(1,3-dioxo-indane-2-carbonyl)-amino]-propionic acid ethyl ester)] | – | – | 10800 nM
COCCOCCNC(=O)C1C(=O)c2ccc(C(=O)c3ccc4c(c3)C(=O)C(C(=O)NCCOCCOC)C4=O)cc2C1=O (stereo not shown) [Example 66, 5,5′-carbonylbis(n-(2-(2-methoxyethoxy)ethyl)-1,3-dioxo-2,3-dihydro-1h-indene-2-carboxamide)] | 48% | 86% | –
O=C(c1ccc2c(c1)C(=O)C(C(=O)NCCOCC(F)(F)F)C2=O)c1ccc2c(c1)C(=O)C(C(=O)NCCOCC(F)(F)F)C2=O (stereo not shown) [Example 67, 5,5′-carbonylbis(1,3-dioxo-n-(2-(2,2,2-trifluoroethoxy)ethyl)-2,3-dihydro-1h-indene-2-carboxamide)] | 0% | 20% | –
O=C(c1ccc2c(c1)C(=O)C(C(=O)NC1CCC1)C2=O)c1ccc2c(c1)C(=O)C(C(=O)NC1CCC1)C2=O (stereo not shown) [Example 68, 5,5′-carbonylbis(n-cyclobutyl-1,3-dioxo-2,3-dihydro-1h-indene-2-carboxamide)] | 45% | 86% | 1540 nM
O=C(c1ccc2c(c1)C(=O)C(C(=O)NC1CCCC1)C2=O)c1ccc2c(c1)C(=O)C(C(=O)NC1CCCC1)C2=O (stereo not shown) [Example 71, 5,5′-carbonylbis(n-cyclopentyl-1,3-dioxo-2,3-dihydro-1h-indene-2-carboxamide)] | 2% | 85% | 1000 nM

More lines, now with the values ahead:

inhibition at 5 µM | inhibition at 10 µM | IC50 | SMILES
59% | 66% | 3610 nM | O=C(c1ccc2c(c1)C(=O)C(C(=O)NCc1ccc(F)cc1)C2=O)c1ccc2c(c1)C(=O)C(C(=O)NCc1ccc(F)cc1)C2=O (stereo not shown) [Example 26, 5,5′-carbonylbis(1,3-dioxo-indan-2-carboxylic acid ((4-fluorophenyl)methyl)-amide)]
12% | 58% | – | CCOC(=O)CNC(=O)C1C(=O)c2ccc(C(=O)c3ccc4c(c3)C(=O)C(C(=O)NCC(=O)OCC)C4=O)cc2C1=O (stereo not shown) [Example 30, 5,5′-5,5′-carbonylbis([(1,3-dioxo-indane-2-carbonyl)-amino]-acetic acid ethyl ester)]
54% | 77% | 2850 nM | COc1ccc(NC(=O)C2C(=O)c3ccc(S(=O)(=O)c4ccc5c(c4)C(=O)C(C(=O)Nc4ccc(OC)cc4)C5=O)cc3C2=O)cc1 (stereo not shown) [Example 35, 5,5′-sulphonylbis(1,3-dioxo-indan-2-carboxylic acid (4-methoxyphenyl)-amide)]
– | – | ~1000 nM | O=C(Nc1ccccc1)C1C(=O)c2ccc(S(=O)(=O)c3ccc4c(c3)C(=O)C(C(=O)Nc3ccccc3)C4=O)cc2C1=O (stereo not shown) [Example 37, 5,5′-sulphonylbis(1,3-dioxo-indan-2-carboxylic acid (phenyl)-amide)]
74% | 88% | 1070 nM | Cc1cccc(NC(=O)C2C(=O)c3ccc(C(=O)c4ccc5c(c4)C(=O)C(C(=O)Nc4cccc(C)c4)C5=O)cc3C2=O)c1 (stereo not shown) [Example 38, 5,5′-carbonylbis(1,3-dioxo-n-(m-tolyl)-2,3-dihydro-1h-indene-2-carboxamide)]
50% | 71% | – | C=CCNC(=O)C1C(=O)c2ccc(C(=O)c3ccc4c(c3)C(=O)C(C(=O)NCC=C)C4=O)cc2C1=O (stereo not shown) [Example 65, 5,5′-carbonylbis(n-allyl-1,3-dioxo-2,3-dihydro-1h-indene-2-carboxamide)]
60% | 85% | 1050 nM | COc1ccccc1NC(=O)C1C(=O)c2ccc(S(=O)(=O)c3ccc4c(c3)C(=O)C(C(=O)Nc3ccccc3OC)C4=O)cc2C1=O (stereo not shown) [Example 69, 5,5′-sulfonylbis(n-(2-methoxyphenyl)-1,3-dioxo-2,3-dihydro-1h-indene-2-carboxamide)]
